Measured values taken from the NIST ThermoML archive (doi:10.1021/je060190e).
± gives the expanded uncertainty stated by the source.

Details: 101.33 kPa, Liquid

CCCCn1cc[n+](C)c1.COS(=O)(=O)[O-] [1-butyl-3-methylimidazolium methyl sulfate]
mass density (290.95 K): 1214.9 ± 2.2 kg/m3
mass density (292.95 K): 1213.5 ± 2.2 kg/m3
mass density (294.95 K): 1212.1 ± 2.2 kg/m3
mass density (297 K): 1210.7 ± 2.2 kg/m3
mass density (299 K): 1209.4 ± 2.2 kg/m3
mass density (301 K): 1208 ± 2.2 kg/m3
mass density (303 K): 1206.7 ± 2.2 kg/m3
mass density (305 K): 1205.3 ± 2.2 kg/m3
mass density (307.05 K): 1204 ± 2.2 kg/m3
